Where two headings read alike, the source gives them in different places.
Tests used:
PDHK2 [1] = molecular target: T1, PDHK2 (Homo sapiens, UniProt Q15119); assay: FP assay; format: binding; conditions: PDHK2, purified enantiomer; read-out: Kd determined by FP assay
T1 construct: human PDHK2 (residues 16–407); His tag with TEV protease cleavage site (N, cleaved yes); made in house; host or cells: BL21 cells (E. coli)

PDHK2 [2] = molecular target: T1, PDHK2; assay: Soak of purified enantiomers into PDHK2 crystals; format: binding; conditions: 2 days, 2 mM
Protocol: CRM number 11 is a racemate of two enantiomers, 23 and 24. […] A PR was obtained for all three of the soaks of CRM number 11 in the full XChem screen that selected just the higher-affinity eutomer 23.
A final concentration of 2 mM of each of the 13 CRMs and 17 pure compounds was added into crystal drops of PDHK2 in triplicate for soak-time durations of 2–4 h, O/N and 2 days at 4 °C. In addition, the final compound concentrations of 0.5 mM and 1 mM were added into PDHK2 crystal drops in triplicate, which were subsequently left to soak for 2 days also at 4 °C. Glycerol was added as a cryoprotectant (at a final concentration of 20%) by ECHO acoustic transfer shortly before mounting the crystals in cryo-cooled pucks. All data were collected on beamline I04-1 in automated mode and autoprocessed using xia2[23].

Hsp90 [3] = molecular target: T2, Hsp90 (Homo sapiens, UniProt P07900); assay: SPR off-rate (koff) of crude reaction mixtures and starting materials; format: binding; conditions: 25 °C
T2 construct: N-terminal domain of human Hsp90α (residues 1–236); made in house; host or cells: BL21 cells (E. coli)
Protocol: (§1) The off-rate or koff for dissociation of each of the 83 CRMs from Hsp90 and PDHK2 was measured in duplicate by SPR and is shown in Supplementary Table 1. Failure to obtain a koff value for some CRMs (not determined, ND) was due to poor signal and was most marked for PDHK2.
(§2) Both proteins (human PDHK2 (residues 16–407) and N-terminal domain of human Hsp90α (residues 1–236)) were expressed as an N-terminal His tag fusion protein with a TEV protease cleavage in BL21 cells and purified on a Ni^2+ affinity followed by size-exclusion column, details as previously described[13],[27]. Uncleaved His-tagged variants were used in SPR experiments; tags were removed for crystallisation.
(§3) SPR experiments were conducted on T200 and T100 BIAcore instruments (GE Healthcare) at 25 °C. The His-tagged proteins were immobilised on a series of S NTA chips, and the running buffer with 10 mM HEPES, pH 7.4, 150 mM NaCl, 0.05% P-20, 0.025 mM EDTA and 1% DMSO was used. The sensor surface was regenerated between cycles to eliminate any carryover of protein and/or analyte. Details are as described previously.

PDHK2 [4] = molecular target: T1, PDHK2; assay: as above; format: binding
Protocol: as §1, §2, §3

Hsp90 [5] = molecular target: T2, Hsp90; assay: KD by SPR titration of purified compounds; format: binding; conditions: purified product of the CRM, 25 °C, average of at least two determinations, read-out: KD (SPR) (µM) of pure
Description: Table 3 summarises for each of the purified compounds from these nine CRMs, the results of a manual soaking of the purified compound or the CRM into Hsp90 crystals, and the measurement for the purified compounds of solubility and KD measured by both SPR titration and by isothermal titration calorimetry (ITC). […] This leaves anomalies for seven CRMs that gave SM. One of these had low solubility (CRM 75), leaving six CRMs giving SM on repeated manual soaking to explain.
as §3

Hsp90 [6] = molecular target: T2, Hsp90; assay: Isothermal titration calorimetry; conditions: read-out: KD measured by ITC for binding to Hsp90
Protocol: ITC experiments were conducted at 25 °C by titration of a stock sample of 100 µM compound onto a solution of 10 µM Hsp90 in a GE ITC200 instrument.

[7] = Hsp90, SPR, CRM (SM1, SM2: starting material), read-out: koff CRM

Row | Kd (PDHK2 [1]) [µM] | crystal structure from soak of purified enantiomer into PDHK2 crystals (PDHK2 [2]) | koff (Hsp90 [3]; [7]) [s⁻¹] | koff (PDHK2 [4]; read-out: koff for PDHK2) [s⁻¹] | Kd (Hsp90 [5]) [µM] | koff (Hsp90 [3]; SPR, CRM unpurified (SM1/SM2 head lines: starting material), duplicate, 1 given to all koff >= 1 sec-1 (limit of assay sensitivity), read-out: koff s-1 Hsp90) [s⁻¹] | koff (PDHK2 [4]; CRM unpurified (SM1/SM2 head lines: starting material), duplicate, 25 °C, 1 given to all koff >= 1 sec-1 (limit of assay sensitivity), read-out: koff s-1 PDHK2) [s⁻¹] | Kd (Hsp90 [6]) [µM] | SMILES
1 | 17 | structures were obtained |  |  |  |  |  |  | COc1cc2c(cc1OC)[C@@H](c1cccnc1)N(C(=O)c1ccc(O)cc1O)CC2 [Compound 24]
2 |  |  | 0.2 | 0.083 | 2 |  |  |  | CN(C(=O)c1ccc(O)cc1O)c1ccc(C(N)=O)cc1 [SM2]
3 | 0.14 | structures were obtained |  |  |  |  |  |  | COc1cc2c(cc1OC)[C@H](c1cccnc1)N(C(=O)c1ccc(O)cc1O)CC2 [Compound 23]
4 |  |  | > 1 | > 1 | 2000 | ≥ 1 | ≥ 1 | 2000 | NC(=O)c1ccc(O)cc1O [SM1]

Source: paper PMC9814918, “Rapid optimisation of fragments and hits to lead compounds from screening of crude reaction mixtures” (Communications Chemistry, 2020)
